# From patent US10526309B2, “Pan-TAM inhibitors and Mer/Axl dual inhibitors” (The University of North Carolina at Chapel Hill, priority 2015, dated 2020)
# Target: T1, FLT3 (Homo sapiens, UniProt P36888)
# T1 sequence (P36888 27-993): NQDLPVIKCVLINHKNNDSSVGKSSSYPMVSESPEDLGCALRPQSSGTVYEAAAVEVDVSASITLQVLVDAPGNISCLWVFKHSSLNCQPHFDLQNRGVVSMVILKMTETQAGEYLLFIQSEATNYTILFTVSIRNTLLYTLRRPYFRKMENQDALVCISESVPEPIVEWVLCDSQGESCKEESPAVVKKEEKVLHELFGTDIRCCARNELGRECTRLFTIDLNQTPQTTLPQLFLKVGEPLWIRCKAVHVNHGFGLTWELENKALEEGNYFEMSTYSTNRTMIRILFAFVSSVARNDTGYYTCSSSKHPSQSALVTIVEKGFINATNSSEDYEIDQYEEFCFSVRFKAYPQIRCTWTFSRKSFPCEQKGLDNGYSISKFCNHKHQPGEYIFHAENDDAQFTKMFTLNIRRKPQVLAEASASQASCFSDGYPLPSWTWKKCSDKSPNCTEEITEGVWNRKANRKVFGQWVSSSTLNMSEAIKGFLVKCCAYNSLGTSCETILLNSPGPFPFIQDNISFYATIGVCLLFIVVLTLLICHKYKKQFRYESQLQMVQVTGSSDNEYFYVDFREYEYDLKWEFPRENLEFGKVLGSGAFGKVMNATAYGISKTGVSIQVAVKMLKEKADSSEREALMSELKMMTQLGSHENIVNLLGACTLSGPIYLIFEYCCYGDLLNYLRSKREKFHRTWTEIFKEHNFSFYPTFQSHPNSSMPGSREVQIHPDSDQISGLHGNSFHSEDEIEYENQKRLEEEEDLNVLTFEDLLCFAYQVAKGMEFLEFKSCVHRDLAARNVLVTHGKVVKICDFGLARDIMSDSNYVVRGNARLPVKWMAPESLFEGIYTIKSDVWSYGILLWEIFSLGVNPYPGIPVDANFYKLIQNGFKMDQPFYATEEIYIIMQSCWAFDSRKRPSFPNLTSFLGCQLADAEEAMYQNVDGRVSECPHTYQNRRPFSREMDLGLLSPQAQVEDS
# Assay: FLT3 kinase inhibition IC50
# Format: biochemical
# Conditions: Example 6
smiles,measurement,value
O[C@H]1CC[C@H](Nc2nc(Nc3ccccc3)ncc2-c2ccc(CN3CCCC3)cn2)CC1 [UNC4198A],IC50,0.76 nM
